# In patent US4455419A, “2'-Modified kanamycins and production thereof” (Zaidan Hojin Biseibutsu Kagaku Kenkyu Kai, priority 1981, dated 1984):
# Read-outs that look alike come from different tables or passages of the source.
# Columns and labels:
# Assay in all cases: Minimum inhibitory concentration, standard serial dilution method
# Type in all cases: cell-based
# [1] = test system: Pseudomonas aeruginosa E-2 IAM-1007; conditions: read-out: Minimum Inhibitory Concentrations
# From the text: (§1) For comparison purpose, the minimum inhibitory concentrations (mcg/ml) of the parent compound, kanamycin A are also shown in Table II.
# [2] = test system: Salmonela typhimlium LT-2; conditions: 24 h, read-out: Minimum Inhibitory Concentrations
# From the text: as §1
# [3] = test system: Escherichia coli JR66/W677 (A-20683); conditions: read-out: Minimum Inhibitory Concentrations
# From the text: as §1
# Providencia morgani Kono = conditions: read-out: Minimum Inhibitory Concentrations
# From the text: as §1
# [4] = test system: Klebsiella pneumoniae PCI-602; conditions: read-out: Minimum Inhibitory Concentrations
# From the text: as §1
# Escherichia coli No. 29 = conditions: read-out: Minimum Inhibitory Concentrations
# From the text: as §1
# [5] = test system: Serratia marcescens No. 1; conditions: read-out: Minimum Inhibitory Concentrations
# From the text: as §1
# [6] = test system: Staphylococcus aureus Rosenbach FDA 209-OJC-1; conditions: read-out: Minimum Inhibitory Concentrations
# From the text: as §1
# [7] = test system: Pseudomonas aeruginosa IAM-1007; conditions: read-out: Minimum Inhibitory Concentrations
# From the text: as §1
# [8] = test system: Staphylococcus epidermidis 109; conditions: read-out: Minimum Inhibitory Concentrations
# From the text: as §1
# [9] = Pseudomonas aeruginosa, IAM1007, 24 h
# [10] = Escherichia coli JR66/W677 (A-20683), nutrient agar, 37° C., 24 hours
# [11] = Klebsiella pneumoniae, PCI602, 24 h
# [12] = Escherichia coli No. 29, nutrient agar, 37° C., 24 hours
# [13] = Serratia marcescens, NO.1, 24 h
# [14] = Staphylococcus aureus, FDA209, 24 h
# [15] = Staphylococcus epidermidis, 109, 24 h
SMILES,"MIC [1, 9]",MIC [2],"MIC [3, 10]","MIC (Providencia morgani Kono; Providencia, 24 h)","MIC [4, 11]",MIC (Escherichia coli No. 29; [12]),"MIC [5, 13]","MIC [6, 14]","MIC [7, 9]","MIC [8, 15]","MIC (Escherichia coli No. 29; Escherichia coli, NO.29, 24 h)","MIC ([3]; Escherichia coli, 24 h)","MIC ([1]; IAM1007, Pseudomonas aeruginosa E-2 IAM-1007, nutrient agar, 37° C., 24 hours)","MIC (Providencia morgani Kono; Providencia morgani Kono, nutrient agar, 37° C., 24 hours)","MIC ([4]; PCI602, Klebsiella pneumoniae PCI-602, nutrient agar, 37° C., 24 hours)","MIC ([5]; Serratia marcescens No. 1, nutrient agar, 37° C., 24 hours)","MIC ([6]; FDA209, Staphylococcus aureus Rosenbach FDA 209-OJC-1, nutrient agar, 37° C., 24 hours)","MIC ([7]; IAM1007, Pseudomonas aeruginosa IAM-1007, nutrient agar, 37° C., 24 hours)","MIC ([8]; Staphylococcus epidermidis 109, nutrient agar, 37° C., 24 hours)"
"NC[C@H]1O[C@H](O[C@H]2[C@H](O)[C@@H](O[C@H]3O[C@H](CO)[C@@H](O)[C@H](N)[C@H]3O)[C@H](N)C[C@@H]2N)[C@H](O)[C@@H](O)[C@@H]1O [Kanamycin A, kanamycin A, reference compound]",50 µg/mL,1.56 µg/mL,> 100 µg/mL,3.13 µg/mL,1.56 µg/mL,0.78 µg/mL,3.13 µg/mL,0.1 µg/mL,12.5 µg/mL,3.13 µg/mL,–,–,–,–,–,–,–,–,–
"NC[C@H]1O[C@H](O[C@H]2[C@H](O)[C@@H](O[C@H]3O[C@H](CO)[C@@H](O)[C@H](N)[C@H]3O)[C@H](N)C[C@@H]2N)[C@@H](O)[C@@H](O)[C@@H]1O [2'-Epikanamycin A, 2'-epikanamycin A]",> 100 µg/mL,6.25 µg/mL,> 100 µg/mL,6.25 µg/mL,6.25 µg/mL,–,12.5 µg/mL,0.39 µg/mL,50 µg/mL,25 µg/mL,6.25 µg/mL,–,–,–,–,–,–,–,–
"NC[C@H]1O[C@H](O[C@H]2[C@H](O)[C@@H](O[C@H]3O[C@H](CO)[C@@H](O)[C@H](N)[C@H]3O)[C@H](N)C[C@@H]2N)[C@@H](N)[C@@H](O)[C@@H]1O [2'-Epikanamycin B, 2'-epikanamycin B]",> 100 µg/mL,50 µg/mL,–,50 µg/mL,50 µg/mL,–,100 µg/mL,1.56 µg/mL,> 100 µg/mL,50 µg/mL,50 µg/mL,> 100 µg/mL,–,–,–,–,–,–,–
"NC[C@H]1O[C@H](O[C@H]2[C@H](O)[C@@H](O[C@H]3O[C@H](CO)[C@@H](O)[C@H](N)[C@H]3O)[C@H](N)C[C@@H]2N)C[C@@H](O)[C@@H]1O [2'-Deoxykanamycin A, 2'-deoxykanamycin A]",–,0.78 µg/mL,50 µg/mL,–,–,0.39 µg/mL,–,–,–,–,–,–,6.25 µg/mL,0.78 µg/mL,0.78 µg/mL,0.78 µg/mL,0.05 µg/mL,1.56 µg/mL,0.2 µg/mL
